Values quoted from earlier work in patent publication US8916194B2 (Lupin Limited, priority 2010, dated 2014).

Conditions: in vivo

## CCN(CC)C(=O)C1(c2ccccc2)CC1CN (stereo not drawn) [Milnacipran, cis-2-amino methyl-N, N-diethyl-1-phenyl cyclopropane carboxamide]
  half-life: ~8 h
